Reference: PubChem BioAssay AID248 (DTP/NCI, 2004)
Several values for one entry are separate records, joined by “and”; a condition that tells them apart may be missing. Equal values may be shown once. Toxic doses and inconclusive results are not listed. No stated cut-off is given here; in the data, active means T/C of 150% or more; inactive means T/C below 125%.

Test system: L1210 leukemia ip in BDF1 mice, survival T/C
Assay: NCI In Vivo Anticancer Drug Screen. Data for tumor model L1210 Leukemia (intraperitoneal) in B6D2F1 (BDF1) mice
Settings: endpoint: mean survival time, higher = longer survival
In short: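 Mice bearing the transplanted tumor received compound or vehicle. Survival of the treated group was divided by that of the vehicle-treated control group to give the ratio.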

[1] = dose: 100.0 mg/kg/injection, schedule: Q01DX001 (ip), vehicle: carboxymethylcellulose (CMC)
[2] = dose: 200.0 mg/kg/injection, schedule: Q01DX001 (ip), vehicle: carboxymethylcellulose (CMC)
[3] = dose: 400.0 mg/kg/injection, schedule: Q01DX001 (ip), vehicle: carboxymethylcellulose (CMC)
[4] = dose: 50.0 mg/kg/injection, schedule: Q01DX009 (ip), vehicle: saline
[5] = dose: 100.0 mg/kg/injection, schedule: Q01DX009 (ip), vehicle: saline
[6] = dose: 200.0 mg/kg/injection, schedule: Q01DX009 (ip), vehicle: saline
[7] = dose: 100.0 mg/kg/injection, schedule: Q04DX003 (ip), vehicle: Klucel (hydroxypropylcellulose) (HPC)
[8] = dose: 200.0 mg/kg/injection, schedule: Q04DX003 (ip), vehicle: Klucel (hydroxypropylcellulose) (HPC)
[9] = dose: 400.0 mg/kg/injection, schedule: Q04DX003 (ip), vehicle: Klucel (hydroxypropylcellulose) (HPC)
[10] = dose: 100.0 mg/kg/injection, schedule: Q01DX009 (ip), vehicle: Klucel (hydroxypropylcellulose) (HPC)
[11] = dose: 200.0 mg/kg/injection, schedule: Q01DX009 (ip), vehicle: Klucel (hydroxypropylcellulose) (HPC)
[12] = dose: 400.0 mg/kg/injection, schedule: Q01DX009 (ip), vehicle: Klucel (hydroxypropylcellulose) (HPC)
[13] = dose: 100.0 mg/kg/injection, schedule: Q04DX003 (ip), vehicle: other
[14] = dose: 200.0 mg/kg/injection, schedule: Q04DX003 (ip), vehicle: other
[15] = dose: 400.0 mg/kg/injection, schedule: Q04DX003 (ip), vehicle: other

Measured: T/C

Cc1ccc(S(=O)(=O)N2CCc3ccccc3C=C2Br)cc1
inactive: [1] 100 % of control | [2] 102 % of control | [3] 112 % of control

CNC1CCCCC1O (centres undefined)
inactive: [4] 97 % of control | [5] 91 % of control | [6] 94 % of control

CCCCCCCCCCCCCCCCCCS(=O)(=O)CCCl
inactive: dose: 25.0 mg/kg/injection, schedule: Q04DX003 (ip), vehicle: Klucel (hydroxypropylcellulose) (HPC) 107 % of control | dose: 50.0 mg/kg/injection, schedule: Q04DX003 (ip), vehicle: Klucel (hydroxypropylcellulose) (HPC) 100 % of control | [7] 96 % of control | [8] 93 % of control | [9] 91 % of control

C=CCN(CC=C)P(=O)(N1CC1)N1CC1
inactive: dose: 6.2 mg/kg/injection, schedule: Q01DX001 (ip), vehicle: saline 88 % of control | dose: 12.5 mg/kg/injection, schedule: Q01DX001 (ip), vehicle: saline 88 % of control | dose: 25.0 mg/kg/injection, schedule: Q01DX001 (ip), vehicle: saline 88 % of control | dose: 50.0 mg/kg/injection, schedule: Q01DX001 (ip), vehicle: saline 88 % of control

CN1C2CCC1C(O)C(c1ccccc1)C2 (centres undefined)
inactive: dose: 10.0 mg/kg/injection, schedule: Q01DX001 (ip), vehicle: saline 106 % of control | dose: 20.0 mg/kg/injection, schedule: Q01DX001 (ip), vehicle: saline 101 % of control | dose: 40.0 mg/kg/injection, schedule: Q01DX001 (ip), vehicle: saline 106 % of control

Nc1nc(N)c(-c2ccc(Cl)cc2)c(C=O)n1
inactive: [1] 108 % of control | [2] 87 % of control | [3] 108 % of control

CCCCCCCCCCCCCCCCOc1ccc(S(=O)(=O)c2ccccc2)cc1[N+](=O)[O-]
inactive: [7] 91 % of control | [8] 94 % of control | dose: 400.0 mg/kg/injection, schedule: Q01DX009 (ip), vehicle: saline sonified 96 % of control | [9] 96 % of control

O=C1C(c2ccccc2)=C(N2CCCCC2)C(=O)C(c2ccccc2)=C1N1CCCCC1
inactive: [1] 90 % of control | [2] 90 % of control | [3] 94 % of control

CCOCCC=O
inactive: [4] 97 % of control | [5] 91 % of control | [6] 91 % of control

CNC(=O)Nc1ccccc1C(=O)OC
inactive: [10] 100 % of control | [7] 97 % of control | [11] 98 % of control | [8] 97 % of control | [12] 98 % of control | [9] 101 % of control

Cc1nc2[nH]c(=O)[nH]c(=O)c2nc1C
inactive: dose: 16.0 mg/kg/injection, schedule: Q01DX Z (ip), vehicle: methylcellulose (MC) 100 % of control | dose: 31.0 mg/kg/injection, schedule: Q01DX Z (ip), vehicle: methylcellulose (MC) 95 % of control | dose: 62.0 mg/kg/injection, schedule: Q01DX Z (ip), vehicle: methylcellulose (MC) 87 % of control | dose: 100.0 mg/kg/injection, schedule: Q01DX001 (ip), vehicle: other 104 % of control | [13] 96 % of control | dose: 125.0 mg/kg/injection, schedule: Q01DX Z (ip), vehicle: methylcellulose (MC) 92 % of control and 93 % of control | dose: 200.0 mg/kg/injection, schedule: Q01DX001 (ip), vehicle: other 107 % of control | [14] 104 % of control | dose: 250.0 mg/kg/injection, schedule: Q01DX Z (ip), vehicle: methylcellulose (MC) 89 % of control | dose: 400.0 mg/kg/injection, schedule: Q01DX001 (ip), vehicle: other 102 % of control | [15] 96 % of control | dose: 500.0 mg/kg/injection, schedule: Q01DX Z (ip), vehicle: methylcellulose (MC) 89 % of control

Nc1ncnc2c1ncn2CCCCl
inactive: [4] 100 % of control | [5] 100 % of control | dose: 100.0 mg/kg/injection, schedule: Q04DX003 (ip), vehicle: saline 90 % of control | [6] 92 % of control | dose: 200.0 mg/kg/injection, schedule: Q04DX003 (ip), vehicle: saline 106 % of control

COC(=O)C(NC(=O)CCl)C(=O)OC
inactive: [13] 96 % of control | [14] 93 % of control | [15] 94 % of control

CCCCCCCCOc1ccc(C=Nc2ccc(C)cc2)cc1
inactive: [10] 98 % of control | [11] 104 % of control | [12] 92 % of control

COC(=O)C1CCCN(C)C1c1c[nH]c2ccccc12 (centres undefined)
inactive: dose: 75.0 mg/kg/injection, schedule: Q01DX001 (ip), vehicle: other 90 % of control | dose: 150.0 mg/kg/injection, schedule: Q01DX001 (ip), vehicle: other 106 % of control

NC(C(=O)O)C(O)C(=O)O (centres undefined)
inactive: dose: 75.0 mg/kg/injection, schedule: Q04DX003 (ip), vehicle: saline 98 % of control | dose: 150.0 mg/kg/injection, schedule: Q04DX003 (ip), vehicle: saline 98 % of control | dose: 300.0 mg/kg/injection, schedule: Q04DX003 (ip), vehicle: saline 96 % of control

CC(=O)N(C)c1ccc(NC(=O)Nc2ccc(C)cc2[N+](=O)[O-])cc1
inactive: [7] 94 % of control | [8] 94 % of control | [9] 94 % of control

Clc1ccc(-c2nc3ccccc3cc2N2CCOCC2)cc1
inactive: [7] 108 % of control | [8] 103 % of control | [9] 100 % of control

Nc1cc(OCc2ccccc2)ncn1
inactive: dose: 25.0 mg/kg/injection, schedule: Q01DX001 (ip), vehicle: Klucel (hydroxypropylcellulose) (HPC) 103 % of control | dose: 50.0 mg/kg/injection, schedule: Q01DX001 (ip), vehicle: Klucel (hydroxypropylcellulose) (HPC) 109 % of control | dose: 100.0 mg/kg/injection, schedule: Q01DX001 (ip), vehicle: Klucel (hydroxypropylcellulose) (HPC) 97 % of control

O=Nc1ccc(O)c(=O)cc1
inactive: dose: 1.0 mg/kg/injection, schedule: Q01DX009 (ip), vehicle: saline 90 % of control | dose: 1.0 mg/kg/injection, schedule: Q04DX003 (ip), vehicle: saline 100 % of control | dose: 2.0 mg/kg/injection, schedule: Q01DX009 (ip), vehicle: saline 90 % of control | dose: 2.0 mg/kg/injection, schedule: Q04DX003 (ip), vehicle: saline 97 % of control | dose: 4.0 mg/kg/injection, schedule: Q01DX009 (ip), vehicle: saline 97 % of control | dose: 4.0 mg/kg/injection, schedule: Q04DX003 (ip), vehicle: saline 109 % of control

CCOC(=O)CCC(NC(=O)c1cnc(N)s1)C(=O)OCC (centres undefined)
inactive: dose: 44.0 mg/kg/injection, schedule: Q01DX001 (ip), vehicle: saline with Tween-80 97 % of control | dose: 66.0 mg/kg/injection, schedule: Q01DX001 (ip), vehicle: saline with Tween-80 97 % of control | dose: 100.0 mg/kg/injection, schedule: Q01DX001 (ip), vehicle: saline with Tween-80 97 % of control | dose: 150.0 mg/kg/injection, schedule: Q01DX001 (ip), vehicle: saline with Tween-80 101 % of control | dose: 200.0 mg/kg/injection, schedule: Q01DX001 (ip), vehicle: saline with Tween-80 93 % of control | dose: 400.0 mg/kg/injection, schedule: Q01DX001 (ip), vehicle: saline with Tween-80 102 % of control

CCOCCOC(=O)c1ccc(C#N)cc1
inactive: dose: 100.0 mg/kg/injection, schedule: Q01DX001 (ip), vehicle: saline 100 % of control | dose: 200.0 mg/kg/injection, schedule: Q01DX001 (ip), vehicle: saline 97 % of control | dose: 400.0 mg/kg/injection, schedule: Q01DX001 (ip), vehicle: saline 97 % of control
